Data taken from patent US8084455B2, “Use of a kinase inhibitor for the treatment of particular resistant tumors” (Nerviano Medical Sciences S.r.l., priority 2006, dated 2011).
Residue numbers refer to the chain shown, from its start. Read-outs that look alike come from different tables or passages of the source.

Assays:
[1] = system: Imatinib-resistant ABL mutants; settings: literature; cited from earlier work
[2] = target: T1, Wild-type ABL kinase domain (Homo sapiens, UniProt P00519); settings: Table 1; displacement of probe 3.1 at 0.12 μM, 10 nM enzyme, average of three experiments
T1 sequence (P00519 229-512): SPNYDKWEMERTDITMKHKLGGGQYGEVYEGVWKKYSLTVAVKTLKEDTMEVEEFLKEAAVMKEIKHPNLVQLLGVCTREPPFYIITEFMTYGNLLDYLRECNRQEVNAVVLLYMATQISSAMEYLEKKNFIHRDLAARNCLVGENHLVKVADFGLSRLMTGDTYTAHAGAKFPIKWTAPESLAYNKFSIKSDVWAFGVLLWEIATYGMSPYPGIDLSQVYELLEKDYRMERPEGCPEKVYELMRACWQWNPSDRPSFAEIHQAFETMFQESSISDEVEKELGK
Description: (§1) In all experiments, the fluorescence signal was measured using a Fusion α-FP HT plate reader (Packard). Data analysis was performed using the Dynafit software.
(§2) In particular, titration data were fitted to the following equilibria: Enzyme+probe<==>Complex Enzyme-probe, while displacement data were fitted to the following equilibria: Enzyme+probe<==>Complex Enzyme-probe, Enzyme+Compound<==>Complex Enzyme-Compound, whereby binding of probe and compound on the enzyme are mutually exclusive (pure competitive mechanism).
(§3) The mixture of enzyme and probe was added to the previously diluted compounds. […] In agreement, affinity binding constants (KD) were determined by fitting with a pure competitive mechanism. KD values, are the average of three independent experiments.
(§4) The displacement assay was performed as described before, with 3 μM as the highest inhibitor concentration tested with dilution steps 1:1.5.

[3] = target: T2, T315I ABL mutant kinase domain (Homo sapiens, UniProt P00519, T315I); settings: Table 1; displacement of probe 3.1 at 0.42 μM, 10 nM enzyme, average of three experiments
T2 sequence (P00519 229-512 T315I): T1 sequence (P00519 229-512) with T87I

[4] = target: T1, Wild-type ABL kinase domain; settings: Table 4; displacement of probe 3.2 at 3.3 μM
Description: as §2, §3
(§5) The applied conditions were the same except for the saturating probe concentration (2, 3.3 and 0.2 μM for ABL wild-type unphosphorylated (0P), wild-type and T315I, respectively) and the probe final concentration (2, 3.3 and 0.2 μM for ABL wild-type unphosphorylated (0P), wild-type and T315I, respectively).
(§6) The displacement assay was performed as described before, with 3 μM as the highest inhibitor concentration tested.

[5] = target: T3, Wild-type ABL 0P (unphosphorylated ABL kinase domain) (Homo sapiens, UniProt P00519); settings: Table 4; displacement of probe 3.2 at 2 μM
T3 sequence (P00519 229-512): T1 sequence (P00519 229-512)
Description: as §2, §3, §5, §6

[6] = target: T2, T315I ABL mutant kinase domain; settings: Table 4; displacement of probe 3.2 at 0.2 μM
[7] = target: T3, Wild-type ABL 0P (unphosphorylated ABL kinase domain); settings: Table 1; displacement of probe 3.1 at 0.15 μM, 10 nM enzyme, average of three experiments
Description: as §1, §2, §3, §4

Compound	activity against Imatinib-resistant ABL mutants [1]	Kd [2]	Kd [3]	Kd [4]	Kd [5]	Kd [6]	Kd [7]
Cc1cn(-c2cc(NC(=O)c3ccc(C)c(Nc4nccc(-c5cccnc5)n4)c3)cc(C(F)(F)F)c2)cn1 [AMN107]	active against the majority						
Nc1ncnc2c1ncn2[C@@H]1O[C@H](COP(=O)(O)OP(=O)(O)OP(O)(O)=S)[C@@H](O)[C@H]1O [ATPγS]		9 ± 1.9 µM	2 ± 0.21 µM	4.8 ± 1 µM	6.6 ± 1.6 µM	2.61 ± 0.9 µM	9.5 ± 3.4 µM
